System: B. subtilis 3610
Type: cell-based, Bacillus subtilis

SMILES	effect on inhibition of B. subtilis growth in co-culture with S. elongatus
CN(C)C(=O)Nc1ccc(Cl)c(Cl)c1 [DCMU, 3-(3,4-dichlorophenyl)-1,1-dimethylurea]	mitigated
O=S(O)(O)=S [thiosulfate]	mitigated

— patent publication US20190218531A1 (priority 2018, published 2019)
